Measured values: PMC12373846, “Hemoglobin as a pseudoperoxidase and drug target for oxidative stress-related diseases” (Signal Transduction and Targeted Therapy, 2025)

Legend:
mice = test: Laser speckle contrast imaging of cerebral perfusion; format: in vivo, mouse
Method: To assess cerebral perfusion, mice were anesthetized with isoflurane (2-3% in 100% O2, maintained at 1.0%) and placed on a heating pad to maintain body temperature. Following scalp incision, the skull surface was exposed without thinning or craniotomy. LSCI was performed using a laser speckle imaging system (RWD Life Science), acquiring frames at 30 Hz. KDS12025 (0.1, 1, or 10 mg/kg/day) or saline was administered via retro-orbital injection immediately prior to imaging. Cerebral blood perfusion and vessel diameter (pipe diameter) were quantified using RWD’s proprietary LSCI analysis software. All imaging was conducted under identical illumination and acquisition parameters.

CDK11 = molecular target: T1, CDK11 (Homo sapiens, UniProt Q9BWU1); test: KINOMEscan; format: binding; conditions: 10000 nM; read-out: Percent Control
T1 construct: purchased DiscoverX KINOMEscan scanEDGE; Eurofins Cerep SafetyScreen87
How it was run: (§1)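 The kinase readout is displacement in a site-directed competition binding assay (scanEDGE panel format). A separate Delta SafetyScreen87 off-target panel provides the non-kinase results.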

ADCK3 = molecular target: T2, ADCK3 (Homo sapiens, UniProt Q8NI60); test: KINOMEscan; format: binding; conditions: 10000 nM; read-out: Percent Control
T2 construct: purchased DiscoverX KINOMEscan scanEDGE; Eurofins Cerep SafetyScreen87
How it was run: as §1

ZAP70 = molecular target: T3, ZAP70 (Homo sapiens, UniProt P43403); test: KINOMEscan; format: binding; conditions: 10000 nM; read-out: Percent Control
T3 construct: purchased DiscoverX KINOMEscan scanEDGE; Eurofins Cerep SafetyScreen87
How it was run: as §1

p38-beta = molecular target: T4, p38-beta (Homo sapiens, UniProt Q15759); test: KINOMEscan; format: binding; conditions: 10000 nM; read-out: Percent Control
T4 construct: purchased DiscoverX KINOMEscan scanEDGE; Eurofins Cerep SafetyScreen87
How it was run: as §1

PIM3 = molecular target: T5, PIM3 (Homo sapiens, UniProt Q86V86); test: KINOMEscan; format: binding; conditions: 10000 nM; read-out: Percent Control
T5 construct: purchased DiscoverX KINOMEscan scanEDGE; Eurofins Cerep SafetyScreen87
How it was run: as §1

CDK2 = molecular target: T6, CDK2 (Homo sapiens, UniProt P24941); test: KINOMEscan; format: binding; conditions: 10000 nM; read-out: Percent Control
T6 construct: purchased DiscoverX KINOMEscan scanEDGE; Eurofins Cerep SafetyScreen87
How it was run: as §1

EGFR(L858R) = molecular target: T7, EGFR(L858R) (Homo sapiens, UniProt P00533, L858R); test: KINOMEscan; format: binding; conditions: 10000 nM; read-out: Percent Control
T7 construct: purchased DiscoverX KINOMEscan scanEDGE; Eurofins Cerep SafetyScreen87
How it was run: as §1

MKNK2 = molecular target: T8, MKNK2 (Homo sapiens, UniProt Q9HBH9); test: KINOMEscan; format: binding; conditions: 10000 nM; read-out: Percent Control
T8 construct: purchased DiscoverX KINOMEscan scanEDGE; Eurofins Cerep SafetyScreen87
How it was run: as §1

DYRK1B = molecular target: T9, DYRK1B (Homo sapiens, UniProt Q9Y463); test: KINOMEscan; format: binding; conditions: 10000 nM; read-out: Percent Control
T9 construct: purchased DiscoverX KINOMEscan scanEDGE; Eurofins Cerep SafetyScreen87
How it was run: as §1

TIE2 = molecular target: T10, TIE2 (Homo sapiens, UniProt Q02763); test: KINOMEscan; format: binding; conditions: 10000 nM; read-out: Percent Control
T10 construct: purchased DiscoverX KINOMEscan scanEDGE; Eurofins Cerep SafetyScreen87
How it was run: as §1

mouse hemoglobin (mHb) = molecular target: T11, mouse hemoglobin (mHb) (Mus musculus, UniProt P02088); test: ROS-Glo H2O2 assay with mouse hemoglobin; format: biochemical; conditions: Fig. S1f; read-out: EC50, H2O2 decomposition with mouse hemoglobin (mHb)
T11 construct: Mouse hemoglobin (Hb) purified from erythrocytes; purchased CUSABIO CSB-NP004901m; host or cells: erythrocytes
Method: Mouse hemoglobin (Hb) purified from erythrocytes (Cat. CSB-NP004901m, CUSABIO) was used for the ROS-Glo H2O2 assay. KDS12025 was added in a dose-dependent manner to a reaction mixture containing mouse Hb and H2O2. The assay was performed according to the manufacturer’s protocol (Promega), and luminescence was measured using an iD5 plate reader. H2O2-decomposing activity was calculated as the percentage reduction in luminescence relative to controls. Assays with human Hb were conducted in parallel for comparison.

CAT = test: ROS-Glo H2O2 assay with CAT; format: biochemical
Method: Hb (Sigma‒Aldrich, H7379), H2O2 (Sigma‒Aldrich, H1009), and Amplex Red reagents (Invitrogen, A12222) were obtained for the study. A 4 μM H2O2 solution was prepared in 50 mM sodium phosphate buffer (pH 7.2). Then, 49 μl of this mixture was mixed with 1 μl of the test compound in DMSO or distilled water. The mixture was combined with an assay mixture of Amplex Red reagent (20 mM stock to 0.1 mM) and HRP (200 U/ml stock to 0.2 U/ml) and added to the wells at 50 μl/well. After a 60-min incubation at 37 °C, resorufin production was quantified via a microplate fluorescence reader (SpectraMax iD5, Molecular Devices) at ex/em = 535/580 nm. The H2O2-decomposing activity was estimated via the following equation: (sample fluorescence-blank fluorescence)/(control […]-blank fluorescence) × 100. For the ROS-Glo assay, the H2O2 substrate solution and ROS-Glo detection solution were prepared according to the manufacturer’s instructions. 10 μM H2O2 and drugs were prepared as in the Amplex Red assay, with HRP, Hb, CAT, or GPx added as needed. […] Luminescence was measured via iD5 microplate readers. The H2O2-decomposing activity was estimated via the following equation: (sample luminescence-blank luminescence)/(control luminescence-blank luminescence) × 100. The U/ml was calculated on the basis of the amount of H2O2 reduced by Hb during the reaction, using μg/ml and U/mg.

T4 sequence (Q15759 whole entry): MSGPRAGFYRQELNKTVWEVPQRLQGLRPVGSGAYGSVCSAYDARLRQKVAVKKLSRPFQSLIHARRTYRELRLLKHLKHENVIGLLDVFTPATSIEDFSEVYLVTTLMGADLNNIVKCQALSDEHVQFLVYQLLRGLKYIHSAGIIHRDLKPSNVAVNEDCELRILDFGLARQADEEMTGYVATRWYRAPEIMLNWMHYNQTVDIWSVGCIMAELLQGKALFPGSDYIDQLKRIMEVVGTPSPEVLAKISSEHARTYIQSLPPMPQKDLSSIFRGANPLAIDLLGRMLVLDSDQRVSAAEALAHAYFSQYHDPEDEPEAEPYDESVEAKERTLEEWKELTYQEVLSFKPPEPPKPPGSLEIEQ
T2 sequence (Q8NI60 163-647): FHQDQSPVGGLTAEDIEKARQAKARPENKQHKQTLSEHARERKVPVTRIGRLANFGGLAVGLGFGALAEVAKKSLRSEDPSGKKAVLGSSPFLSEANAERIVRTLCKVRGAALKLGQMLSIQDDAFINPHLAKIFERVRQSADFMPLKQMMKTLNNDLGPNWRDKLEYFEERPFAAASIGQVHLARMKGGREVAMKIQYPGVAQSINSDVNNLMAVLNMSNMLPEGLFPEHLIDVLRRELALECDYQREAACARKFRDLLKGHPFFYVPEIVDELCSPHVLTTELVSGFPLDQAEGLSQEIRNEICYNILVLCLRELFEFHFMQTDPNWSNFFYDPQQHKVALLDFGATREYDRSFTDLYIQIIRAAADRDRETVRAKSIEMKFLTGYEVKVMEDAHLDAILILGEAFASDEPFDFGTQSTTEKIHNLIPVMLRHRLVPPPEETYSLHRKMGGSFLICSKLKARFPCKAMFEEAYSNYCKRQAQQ
T3 sequence (P43403 whole entry): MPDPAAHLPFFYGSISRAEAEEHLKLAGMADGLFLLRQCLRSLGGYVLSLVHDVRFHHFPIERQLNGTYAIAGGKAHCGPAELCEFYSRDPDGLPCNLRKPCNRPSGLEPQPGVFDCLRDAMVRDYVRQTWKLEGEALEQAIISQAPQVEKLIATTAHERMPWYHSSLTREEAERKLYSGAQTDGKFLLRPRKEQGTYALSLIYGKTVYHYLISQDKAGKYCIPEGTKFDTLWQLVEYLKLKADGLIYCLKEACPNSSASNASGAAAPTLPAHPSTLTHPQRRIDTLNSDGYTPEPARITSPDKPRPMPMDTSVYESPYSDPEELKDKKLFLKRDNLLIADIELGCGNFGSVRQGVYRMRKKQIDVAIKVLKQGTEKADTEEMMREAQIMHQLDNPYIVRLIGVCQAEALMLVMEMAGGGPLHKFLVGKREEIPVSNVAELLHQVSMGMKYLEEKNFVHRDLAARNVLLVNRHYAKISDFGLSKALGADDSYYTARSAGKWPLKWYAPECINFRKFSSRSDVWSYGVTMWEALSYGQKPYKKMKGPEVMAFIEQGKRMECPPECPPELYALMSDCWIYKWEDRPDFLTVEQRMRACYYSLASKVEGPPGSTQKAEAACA
T7 sequence (P00533 25-1210 L858R): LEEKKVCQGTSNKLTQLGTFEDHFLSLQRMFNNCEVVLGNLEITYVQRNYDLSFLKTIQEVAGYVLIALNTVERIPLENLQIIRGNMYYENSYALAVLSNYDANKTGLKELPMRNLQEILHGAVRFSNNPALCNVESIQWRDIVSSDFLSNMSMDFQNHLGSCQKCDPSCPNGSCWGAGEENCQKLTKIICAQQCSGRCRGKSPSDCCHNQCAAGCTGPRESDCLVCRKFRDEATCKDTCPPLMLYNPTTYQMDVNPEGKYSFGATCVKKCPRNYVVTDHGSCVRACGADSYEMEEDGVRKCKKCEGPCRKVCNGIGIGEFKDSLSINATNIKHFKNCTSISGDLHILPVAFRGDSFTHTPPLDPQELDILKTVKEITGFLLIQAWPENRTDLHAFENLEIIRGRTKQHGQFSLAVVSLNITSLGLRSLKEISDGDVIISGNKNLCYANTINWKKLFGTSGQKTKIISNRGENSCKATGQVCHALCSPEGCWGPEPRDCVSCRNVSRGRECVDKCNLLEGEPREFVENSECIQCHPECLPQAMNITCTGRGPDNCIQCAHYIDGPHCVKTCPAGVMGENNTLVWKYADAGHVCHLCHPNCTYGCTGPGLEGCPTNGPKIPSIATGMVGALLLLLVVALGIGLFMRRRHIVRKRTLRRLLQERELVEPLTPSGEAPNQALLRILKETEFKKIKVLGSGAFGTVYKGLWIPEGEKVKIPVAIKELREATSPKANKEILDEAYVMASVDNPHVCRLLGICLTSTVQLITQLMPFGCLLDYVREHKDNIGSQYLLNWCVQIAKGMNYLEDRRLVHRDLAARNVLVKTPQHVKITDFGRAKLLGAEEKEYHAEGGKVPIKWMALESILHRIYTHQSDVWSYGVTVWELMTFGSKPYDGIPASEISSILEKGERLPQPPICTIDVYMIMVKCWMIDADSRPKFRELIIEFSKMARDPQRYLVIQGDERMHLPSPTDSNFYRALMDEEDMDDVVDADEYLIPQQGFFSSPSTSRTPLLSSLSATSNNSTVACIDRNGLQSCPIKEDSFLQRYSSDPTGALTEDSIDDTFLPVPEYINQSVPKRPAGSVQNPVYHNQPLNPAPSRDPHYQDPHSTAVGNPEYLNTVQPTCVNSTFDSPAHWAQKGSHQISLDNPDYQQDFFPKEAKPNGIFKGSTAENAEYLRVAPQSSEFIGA
T11 sequence (P02088 2-147 limits assumed): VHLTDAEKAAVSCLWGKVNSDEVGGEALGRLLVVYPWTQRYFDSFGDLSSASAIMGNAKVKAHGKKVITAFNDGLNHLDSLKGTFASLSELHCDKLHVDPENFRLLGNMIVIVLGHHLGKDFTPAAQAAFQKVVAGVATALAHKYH
T11 sequence (P01942 2-142 partner limits assumed): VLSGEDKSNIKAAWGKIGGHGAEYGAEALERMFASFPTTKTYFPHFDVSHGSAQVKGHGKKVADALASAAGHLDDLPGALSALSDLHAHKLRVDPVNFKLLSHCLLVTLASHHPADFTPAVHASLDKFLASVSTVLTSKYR
T10 sequence (Q02763 23-1124): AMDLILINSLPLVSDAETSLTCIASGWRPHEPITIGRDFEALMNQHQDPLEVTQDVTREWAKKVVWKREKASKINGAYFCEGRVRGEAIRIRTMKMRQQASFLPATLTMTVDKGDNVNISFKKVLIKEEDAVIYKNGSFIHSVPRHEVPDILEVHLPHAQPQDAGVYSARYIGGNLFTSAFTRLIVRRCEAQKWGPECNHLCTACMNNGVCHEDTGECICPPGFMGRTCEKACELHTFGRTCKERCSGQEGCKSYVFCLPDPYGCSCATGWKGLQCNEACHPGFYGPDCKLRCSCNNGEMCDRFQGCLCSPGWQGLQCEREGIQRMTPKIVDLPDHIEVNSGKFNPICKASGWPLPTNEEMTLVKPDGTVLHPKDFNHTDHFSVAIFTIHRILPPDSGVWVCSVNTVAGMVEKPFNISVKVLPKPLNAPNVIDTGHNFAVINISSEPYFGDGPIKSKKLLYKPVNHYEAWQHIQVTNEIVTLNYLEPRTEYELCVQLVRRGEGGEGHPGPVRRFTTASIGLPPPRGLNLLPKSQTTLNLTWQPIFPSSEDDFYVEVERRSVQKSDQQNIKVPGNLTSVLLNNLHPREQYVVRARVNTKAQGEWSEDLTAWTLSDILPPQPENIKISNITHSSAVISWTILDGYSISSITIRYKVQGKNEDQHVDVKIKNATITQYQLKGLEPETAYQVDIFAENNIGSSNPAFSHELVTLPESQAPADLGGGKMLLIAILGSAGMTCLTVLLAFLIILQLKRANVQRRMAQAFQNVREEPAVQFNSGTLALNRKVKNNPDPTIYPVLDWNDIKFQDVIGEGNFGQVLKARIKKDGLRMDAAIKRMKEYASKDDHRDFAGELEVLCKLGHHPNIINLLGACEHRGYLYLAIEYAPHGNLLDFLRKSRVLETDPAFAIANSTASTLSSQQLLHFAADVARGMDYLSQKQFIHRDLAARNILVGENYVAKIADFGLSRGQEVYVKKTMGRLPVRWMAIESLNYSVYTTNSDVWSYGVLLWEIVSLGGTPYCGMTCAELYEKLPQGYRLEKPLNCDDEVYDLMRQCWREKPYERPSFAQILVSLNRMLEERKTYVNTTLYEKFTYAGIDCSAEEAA
T1 sequence (Q9BWU1 whole entry): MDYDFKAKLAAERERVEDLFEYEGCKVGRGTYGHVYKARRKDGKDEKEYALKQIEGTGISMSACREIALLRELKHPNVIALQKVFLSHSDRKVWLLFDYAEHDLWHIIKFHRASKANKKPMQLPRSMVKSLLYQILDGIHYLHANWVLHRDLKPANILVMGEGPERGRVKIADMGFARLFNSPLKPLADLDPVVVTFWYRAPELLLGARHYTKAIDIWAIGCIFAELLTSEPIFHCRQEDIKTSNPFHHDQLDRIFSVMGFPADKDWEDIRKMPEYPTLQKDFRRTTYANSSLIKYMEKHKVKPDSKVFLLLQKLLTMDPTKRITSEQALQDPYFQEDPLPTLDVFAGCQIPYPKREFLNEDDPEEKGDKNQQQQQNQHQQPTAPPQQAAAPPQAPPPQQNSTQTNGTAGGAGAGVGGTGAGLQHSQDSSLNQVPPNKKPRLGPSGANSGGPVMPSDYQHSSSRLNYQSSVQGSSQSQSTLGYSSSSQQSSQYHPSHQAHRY

`CNc1ccc(NCCc2ccccc2OC)cc1.Cl` [KDS12025, N^1-(2-methoxyphenethyl)-N^4-methylbenzene-1,4-diamine hydrochloride salt] was tested, and the “overall cerebral perfusion (LSCI, Fig. S8f)” value (from here on “overall cerebral perfusion”) (mice; 0.1 mpk retro-orbital) was 1169±10.7, the “vessel diameter (pipe diameter, Fig. S8g)” value (“vessel diameter” for short) (mice; 0.1 mpk retro-orbital) was 193±3.8 and the “overall cerebral perfusion” value (mice; 1 mpk retro-orbital) was 1205±10.4. For the same molecule, the “vessel diameter” value (mice; 1 mpk retro-orbital) was 200±2.3, the “overall cerebral perfusion” value (mice; 10 mpk retro-orbital) was 1190±7.4 and the “vessel diameter” value (mice; 10 mpk retro-orbital) was 203±3.9. The remaining binding at 10 µM (CDK11) was 73%, the remaining binding at 10 µM (ADCK3) was 93% and the remaining binding at 10 µM (ZAP70) was 88%. For the same molecule, the remaining binding at 10 µM (p38-beta) was 100%, the remaining binding at 10 µM (PIM3) was 84% and the remaining binding at 10 µM (CDK2) was 92%. It also gave a remaining binding at 10 µM (EGFR(L858R)) of 45%, a remaining binding at 10 µM (MKNK2) of 95% and a remaining binding at 10 µM (DYRK1B) of 67%. The remaining binding at 10 µM (TIE2) was 100% and the EC50 (mouse hemoglobin (mHb)) was 24 nM.
In the case of `O=C(O)c1cc(NCCc2ccc(C(F)(F)F)cc2)ccc1O` [HTPEB, 2-hydroxy-5-[2-(4-trifluoromethyl-phenyl)-ethylamino]-benzoic acid, reference compound], the “effect on CAT activity” value (CAT) is reported as “did not increase”.
